SMILES strings stand for the structures.

The nature of this experiment: ET-1 Assay: Fibroblasts (primary human lung and dermal, HFL-1, 3T3 etc) are seeded in 96-well plates at ~15000 cells/well and serum starved for 0-48 hours. After media exchange, compounds serially diluted in DMSO are added to the cells. After a brief incubation of ~30 min, stimulants (TGFb, serum, LPA etc) are added followed by further incubation for 16-48 hours. Media is then harvested and stored frozen in plate format for later endothelin-1 (ET-1) determination by ELISA. Toxicity measurements are made using the ATPlite kit (Perkin-Elmer). ET-1 is quantified using an ELISA kit (R&D Systems). The amount of ET-1 produced in the assay wells are back-calculated using the ELISA standard. The ability of a compound to inhibit ET-1 production is typically analyzed by fitting dose-response curves to a 4-parameter logistic function to obtain an EC50 value. Particulars: HFL1.
A word on the EC50: it is the concentration at which the effect is half-maximal. In the case of `CCn1c(=O)oc2c(-c3cn(-c4ccc(OC(F)(F)F)cc4)c(=O)cc3C)cccc21`, the EC50 was more than 200 µM. With `Cc1cc(=O)n(-c2ccc(OC(F)(F)F)cc2)cc1-c1nnn(C)n1` the figure was more than 200 µM.

For the molecule `Cc1n[nH]c(C)c1-c1ccc(=O)n(-c2ccncc2)c1`, the EC50 is more than 200 µM.

Take `Cn1cc(-c2cn(-c3ccc(OC(F)(F)F)cc3)c(=O)c3nn(CCF)nc23)cn1`: the EC50 was less than 50 µM. With `O=c1ccc(-c2ccc(F)cc2)cn1-c1ccccc1Cl` the figure was more than 200 µM. With `Cn1cc(-c2cn(-c3ccc(OC(F)(F)F)cc3)c(=O)cc2NCc2c(F)cccc2F)cn1` the entry was “in the range around 125 µM”. With `COCCOCCOCCOc1cccc(-n2cc(C)ccc2=O)c1` the figure was more than 200 µM; with `Cn1cc(-c2cn(-c3ccc(OC(F)(F)F)cc3)c(=O)c3c2OCC(=O)N3Cc2ccccc2)cn1`, more than 200 µM. As for `CCn1ccc2c(-c3cnn(C)c3)cn(-c3ccc(OC(F)(F)F)cc3)c(=O)c21`, the EC50 is less than 50 µM. With `CNC(=O)Nc1cccc(-n2cc(-c3ccc(F)cc3)c(C)cc2=O)c1` the entry was “in the range around 125 µM”; with `Cc1cc(=O)n(-c2ccc(OC(F)(F)F)cc2)cc1-c1cnc2nccn2c1`, more than 200 µM. With `Cc1cc(=O)n(-c2ccc(OC(F)(F)F)cc2)cc1-c1ccc2nonc2c1` the entry was “in the range around 125 µM”; with `CCOc1ccc(-n2cc(-c3cnn(C)c3)c(NCc3ccc(C#N)cc3)cc2=O)c(C)c1`, less than 50 µM; with `COc1ccc(-n2cc(C)ccc2=S)cc1`, more than 200 µM. With `Cn1cc(-c2cn(-c3ccc(OC(F)(F)F)cc3)c(=O)cc2OCc2ccccc2)cn1` the figure was more than 200 µM. For `Cc1cc(-c2cnn(C)c2)cn(-c2ccccc2)c1=O`, the EC50 entry is “in the range around 125 µM”.

For `O=c1cc(OC2CCS(=O)(=O)CC2)c(-c2ccc(F)cc2)cn1-c1ccc(OC(F)(F)F)cc1`, the EC50 is less than 50 µM. With `CC(=O)c1ccc(=O)n(-c2cccc(C(F)(F)F)c2)c1` the figure was more than 200 µM; with `O=C1NC=CCN1c1ccccc1`, more than 200 µM.

On to `Cc1cc(=O)n(-c2ccc(OC(F)(F)F)cc2)cc1-c1ccc2c(c1)OCC(=O)N2`, for which the EC50 result is “in the range around 125 µM”. As to `O=c1c2nccnc2c(-c2cn[nH]c2)cn1-c1ccc(Cl)cc1`, the EC50 was more than 200 µM. As for `Cc1cc(=O)n(-c2cccc(NC(=O)N(C)C)c2)cc1-c1ccc(F)cc1`, the half-maximal effective concentration (EC50) is less than 50 µM. In the case of `O=c1c2ccc(C(F)(F)F)nc2c(-c2ccc(F)cc2)cn1-c1ccc(OC(F)(F)F)cc1` it was more than 200 µM. With `O=c1c2scnc2c(-c2cn[nH]c2)cn1-c1ccc(OC(F)(F)F)cc1` the figure was less than 50 µM.

Take `Cc1cc(=O)n(-c2ccc(OC(F)(F)F)cc2)cc1-c1cccc(Cl)c1`: the EC50 result was “in the range around 125 µM”. Turning to `Cc1cc(=O)n(-c2ccc(Cl)cc2)cc1-c1cn[nH]c1`, the EC50 was more than 200 µM.

Regarding `Cn1cc(-c2cn(-c3ccc(OC(F)(F)F)cc3)c(=O)cc2NCc2ccc(F)cc2F)cn1`, the EC50 is less than 50 µM. For `O=c1ncc(-c2ccc(F)cc2)cn1-c1ccc(OC(F)(F)F)cc1`, the EC50 was more than 200 µM. On to `O=c1cc(OCCN2CCS(=O)(=O)CC2)c(-c2ccc(F)cc2)cn1-c1ccc(OC(F)(F)F)cc1`, for which the EC50 is more than 200 µM. In the case of `Cn1cc(-c2cn(-c3ccc(OC(F)(F)F)cc3)c(=O)cc2NCc2ccccn2)cn1`, the EC50 was less than 50 µM. In the case of `Cc1cc(=O)n(-c2ccc(OC(F)(F)F)cc2)cc1-c1ccc2c(c1)OC(C)(C)O2` it was more than 200 µM; in that of `Cc1cc(=O)n(-c2ccc(OC(F)(F)F)cc2)cc1-c1ccnnc1`, “in the range around 125 µM”; in that of `Cc1cc(=O)n(-c2ccc(OC(F)(F)F)cc2)cc1-c1ccc(F)c(Cl)c1`, less than 50 µM. Take `CCc1cc(=O)n(-c2ccc(OC(F)(F)F)cc2)cc1-c1cnn(C)c1`: the EC50 result was “in the range around 125 µM”. `Cn1cnc2c(-c3ccc(F)cc3)cn(-c3ccc(OC(F)(F)F)cc3)c(=O)c21`: the EC50 was less than 50 µM. For the molecule `Cn1cc(-c2cn(-c3ccc(C#N)cc3)c(=O)c3cccnc23)cn1`, the EC50 result is “in the range around 125 µM”. In the case of `CCOc1ccc(-n2cc(C(C)=O)ccc2=O)c(C)c1` it was more than 200 µM; in that of `CCn1c(=O)oc2cc(-c3cn(-c4ccc(OC(F)(F)F)cc4)c(=O)cc3C)ccc21`, less than 50 µM. Turning to `Cn1cc(-c2cn(-c3ccc(OC(F)(F)F)cc3)c(=O)cc2Oc2cc(Cl)cc(C#N)c2)cn1`, the half-maximal effective concentration (EC50) was more than 200 µM. In the case of `Cc1cc(=O)n(-c2cccc3c2OCCO3)cc1-c1cnn(C)c1` it was “in the range around 125 µM”.

For `Cn1cc(-c2cn(-c3ccc(OC(F)(F)F)cc3)c(=O)cc2N2CCOCC2)cn1`, the EC50 was less than 50 µM. In the case of `Cc1cc(=O)n(-c2ccc(OC(F)(F)F)cc2)cc1-n1ccnc1`, the concentration giving a half-maximal response (EC50) was more than 200 µM.

In the case of `Cc1cc(=O)n(-c2ccc(OC(F)(F)F)cc2)cc1-c1cn(C)nc1C(F)(F)F`, the EC50 result was “in the range around 125 µM”. In the case of `Cn1cc(-c2cn(-c3ccc(OC(F)(F)F)cc3)c(=O)cc2C#N)cn1` it was less than 50 µM. With `CN1CCC(Oc2cc(=O)n(-c3ccc(OC(F)(F)F)cc3)cc2-c2cnn(C)c2)CC1` the figure was less than 50 µM; with `CCn1cnc2c(=O)n(-c3ccc(OC(F)(F)F)cc3)cc(-c3cnn(C)c3)c21`, more than 200 µM. Consider `O=c1ccc(-c2cncnc2)cn1-c1ccccc1F`, for which the EC50 is more than 200 µM. With `CNC(=O)c1cccc(-n2cc(-c3ccc(F)cc3)c(C)cc2=O)c1` the entry was “in the range around 125 µM”. With `O=c1cc(C(F)(F)F)c(-c2ccc(F)cc2)cn1-c1ccc(OC(F)(F)F)cc1` the entry was “in the range around 125 µM”. With `O=c1c2[nH]nnc2c(-c2ccc(F)cc2)cn1-c1ccc(OC(F)(F)F)cc1` the entry was “in the range around 125 µM”; with `Cn1cc(-c2cn(-c3ccc(OC(F)(F)F)cc3)c(=O)cc2NCc2c(Cl)cccc2Cl)cn1`, more than 200 µM. Regarding `CCOc1ccc(-n2cc(-c3cn[nH]c3)c3ccn(C)c3c2=O)c(C)c1`, the half-maximal effective concentration (EC50) is less than 50 µM. In the case of `Cn1cc(-c2c[nH]c(=O)cc2NCc2ncccn2)cn1` it was less than 50 µM. With `Cc1cc(=O)n(-c2ccc3c(c2)OCO3)cc1-c1ccc(F)cc1` the figure was more than 200 µM; with `COC(=O)Nc1cc(=O)n(-c2ccc(OC(F)(F)F)cc2)cc1-c1cnn(C)c1`, more than 200 µM; with `O=c1c2nsnc2c(-c2ccc(F)cc2)cn1-c1ccc(OC(F)(F)F)cc1`, more than 200 µM. In the case of `C#Cc1ccc(=O)n(-c2ccccc2)c1`, the EC50 is more than 200 µM. Consider `CC(C)Oc1ccc(-n2cc(-c3ccc(F)cc3)ccc2=O)cc1`, for which the EC50 entry was “in the range around 125 µM”. Turning to `COc1ccc(-n2cc(-c3cn[nH]c3)ccc2=O)cc1`, the EC50 is more than 200 µM. With `Cc1cc(=O)n(-c2ccc(OC(F)(F)F)cc2)cc1-c1ccc(Cl)c(Cl)c1`, the EC50 entry was “in the range around 125 µM”. In the case of `Cc1cc(=O)n(-c2ccc(OC(F)(F)F)cc2)cc1-c1cccnc1` it was more than 200 µM.

For `Cn1cc(-c2cn(-c3ccc(C#N)cc3)c(=O)c3nccnc23)cn1`, the EC50 is more than 200 µM.

Take `Cc1cc(=O)n(-c2cccc3c2OCO3)cc1-c1ccc(F)cc1`: the EC50 result was “in the range around 125 µM”. In the case of `Cn1cc(-c2cn(-c3ccc(OC(F)(F)F)cc3)c(=O)c3c2ccn3C2CC2)cn1`, the EC50 was less than 50 µM. Turning to `Cn1cc(-c2cn(-c3ccc(C#N)cc3)c(=O)c3c2ccn3C)cn1`, the EC50 was more than 200 µM. In the case of `CCCCC(=O)Nc1cc(=O)n(-c2ccc(OC(F)(F)F)cc2)cc1-c1ccc(F)cc1` it was more than 200 µM. In the case of `O=c1ccc(C(F)(F)F)cn1-c1cncnc1` it was more than 200 µM; in that of `Cn1cc(-c2cn(-c3ccc(OC(F)(F)F)cc3)c(=O)c3scnc23)cn1`, less than 50 µM; in that of `COc1cccc(-n2cc(-c3c(C)n[nH]c3C)ccc2=O)c1`, “in the range around 125 µM”.

For `Cn1cc(-c2cn(-c3ccc(O)cc3)c(=O)cc2Oc2ccccc2)cn1`, the EC50 was more than 200 µM. In the case of `Cc1c(-c2ccc(=O)n(-c3ccc(OC(F)(F)F)cc3)c2)cnn1C` it was less than 50 µM. Consider `Cc1cc(=O)n(-c2ccc(OC(F)(F)F)cc2)cc1-c1ccc2c(c1)OC(F)(F)O2`, for which the EC50 result is “in the range around 125 µM”. As to `Cc1cc(=O)n(-c2ccc(OC(F)(F)F)cc2)cc1-c1c(C)nn(C)c1C`, the EC50 entry was “in the range around 125 µM”. In the case of `O=c1c(-c2ccc(F)cc2)c(-c2ccc(OC(F)(F)F)cc2)c1=O` it was less than 50 µM; in that of `CC(C)N1N=NC2C(=O)N(c3ccc(OC(F)(F)F)cc3)C=C(c3cnn(C)c3)C21` (configuration not stated), “in the range around 125 µM”; in that of `O=c1ccc(-c2cn[nH]c2)cn1-c1ccc(F)cc1`, “in the range around 125 µM”. Consider `Cc1ccc(=S)n(-c2ccc(OC(F)(F)F)cc2)c1`, for which the EC50 entry was “in the range around 125 µM”. With `Cc1cc(=O)n(-c2ccc(OC(F)(F)F)cc2)cc1C` the figure was more than 200 µM.

With `CCn1nnc2c(=O)n(-c3ccc(OC(F)(F)F)cc3)cc(-c3cnn(C)c3)c21`, the EC50 is less than 50 µM. In the case of `O=c1cc2ccccc2cn1-c1ccccc1`, the half-maximal effective concentration (EC50) result was “in the range around 125 µM”. With `O=c1cc(Oc2ccccc2)c(-c2ccc(F)cc2)cn1-c1ccc(OC(F)(F)F)cc1` the figure was more than 200 µM; with `Cc1ccc(-n2cc(-c3ccc(F)cc3)c(C)cc2=O)cc1`, “in the range around 125 µM”.

Turning to `Cn1cc(-c2cn(-c3ccc(OC(F)(F)F)cc3)c(=O)cc2C(F)(F)F)cn1`, the EC50 is more than 200 µM. In the case of `Cc1cc(=O)n(-c2cccc(C(N)=O)c2)cc1-c1ccc(F)cc1`, the EC50 is more than 200 µM. In the case of `Cc1cc(=O)n(-c2ccccc2)cc1-c1ccccc1`, the EC50 result was “in the range around 125 µM”. In the case of `Cc1nc2c(=O)n(-c3ccc(OC(F)(F)F)cc3)ccc2o1` it was more than 200 µM.

For the molecule `Cc1cc(=O)n(-c2cccc(C(F)(F)F)c2)cc1-c1ccccc1`, the EC50 was less than 50 µM.

The values are drawn from ChEMBL document CHEMBL5725356, “Anti-fibrotic pyridinones” (2017).
